According to US20260015350A1, “AZAQUINAZOLINE PAN-KRAS INHIBITORS” (Mirati Therapeutics, Inc., priority 2022, published 2026):

Legend:
[1] = tested on: KRas-mediated phosphorylation of ERK in H727 cells; test: Inhibition of KRas-mediated phosphorylation of ERK (Cisbio HTRF pERK), H727 cells; type: cell-based; details: Homo sapiens, NCI-H727, H727 cells; HTRF pERK
How it was run: (§1)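 Each compound was tested at 10 concentrations, threefold apart with 10 uM the highest, for 3 hrs on 6,000 seeded cells; final DMSO was 0.8% and Trametinib (0.2 uM) served as Min control. Lysed cells were analysed for pERK by HTRF.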

KRas^G12D = molecular target: T1, KRas^G12D (Homo sapiens, UniProt P01116, G12D); test: KRas binding assay (TR-FRET tracer displacement), KRas G12D
T1 construct: Biotinylated KRas (corresponding to amino acids 1-169, produced at Accelegan Inc.); biotin (biotinylated); purchased Accelegan Inc
T1 sequence (P01116 1-169 isoform P01116-2 G12D): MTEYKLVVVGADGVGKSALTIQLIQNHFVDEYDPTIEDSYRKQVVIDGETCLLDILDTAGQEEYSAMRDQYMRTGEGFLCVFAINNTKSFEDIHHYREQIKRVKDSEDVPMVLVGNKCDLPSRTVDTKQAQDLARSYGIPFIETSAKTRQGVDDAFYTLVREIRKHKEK

KRas^G12S = molecular target: T2, KRas^G12S (Homo sapiens, UniProt P01116, G12S); test: KRas binding assay (TR-FRET tracer displacement), KRas G12S; details: TR-FRET tracer displacement, KRas G12S
T2 construct: Biotinylated KRas (corresponding to amino acids 1-169, produced at Accelegan Inc.); biotin (biotinylated); purchased Accelegan Inc
T2 sequence (P01116 1-169 isoform P01116-2 G12S): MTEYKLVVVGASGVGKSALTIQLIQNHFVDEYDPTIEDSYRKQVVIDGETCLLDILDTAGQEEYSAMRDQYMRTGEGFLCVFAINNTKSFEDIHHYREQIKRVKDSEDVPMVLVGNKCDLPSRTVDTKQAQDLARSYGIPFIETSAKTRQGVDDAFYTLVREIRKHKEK

KRas^G12R = molecular target: T3, KRas^G12R (Homo sapiens, UniProt P01116, G12R); test: KRas binding assay (TR-FRET tracer displacement), KRas G12R
T3 construct: Biotinylated KRas (corresponding to amino acids 1-169, produced at Accelegan Inc.); biotin (biotinylated); purchased Accelegan Inc
T3 sequence (P01116 1-169 isoform P01116-2 G12R): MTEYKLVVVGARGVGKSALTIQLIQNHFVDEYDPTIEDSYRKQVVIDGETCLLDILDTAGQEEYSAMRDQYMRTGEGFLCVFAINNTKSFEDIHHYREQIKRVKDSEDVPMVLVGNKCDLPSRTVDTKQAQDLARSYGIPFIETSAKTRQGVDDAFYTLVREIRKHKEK

[2] = tested on: KRas-mediated phosphorylation of ERK in AsPC-1 cells; test: Inhibition of KRas-mediated phosphorylation of ERK (Cisbio HTRF pERK), AsPC-1 cells; type: cell-based; details: Homo sapiens, ASPC1, AsPC-1 cells; HTRF pERK
How it was run: as §1

KRas^G12A = molecular target: T4, KRas^G12A (Homo sapiens, UniProt P01116, G12A); test: KRas binding assay (TR-FRET tracer displacement), KRas G12A; details: TR-FRET tracer displacement, KRas G12A
T4 construct: Biotinylated KRas (corresponding to amino acids 1-169, produced at Accelegan Inc.); biotin (biotinylated); purchased Accelegan Inc
T4 sequence (P01116 1-169 isoform P01116-2 G12A): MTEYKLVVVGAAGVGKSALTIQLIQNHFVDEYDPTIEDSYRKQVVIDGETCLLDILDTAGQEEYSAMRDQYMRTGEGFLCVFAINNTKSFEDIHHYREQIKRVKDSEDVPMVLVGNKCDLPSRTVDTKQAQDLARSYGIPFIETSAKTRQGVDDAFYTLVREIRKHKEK

KRas^G12V = molecular target: T5, KRas^G12V (Homo sapiens, UniProt P01116, G12V); test: KRas binding assay (TR-FRET tracer displacement), KRas G12V
T5 construct: Biotinylated KRas (corresponding to amino acids 1-169, produced at Accelegan Inc.); biotin (biotinylated); purchased Accelegan Inc
T5 sequence (P01116 1-169 isoform P01116-2 G12V): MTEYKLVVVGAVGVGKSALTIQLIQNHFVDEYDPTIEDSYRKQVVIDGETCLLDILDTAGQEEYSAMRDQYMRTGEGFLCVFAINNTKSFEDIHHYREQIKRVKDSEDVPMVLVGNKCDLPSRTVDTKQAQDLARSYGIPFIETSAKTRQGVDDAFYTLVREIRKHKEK

KRas^Q61H = molecular target: T6, KRas^Q61H (Homo sapiens, UniProt P01116, Q61H); test: KRas binding assay (TR-FRET tracer displacement), KRas Q61H; details: TR-FRET tracer displacement, KRas Q61H
T6 construct: Biotinylated KRas (corresponding to amino acids 1-169, produced at Accelegan Inc.); biotin (biotinylated); purchased Accelegan Inc
T6 sequence (P01116 1-169 isoform P01116-2 Q61H): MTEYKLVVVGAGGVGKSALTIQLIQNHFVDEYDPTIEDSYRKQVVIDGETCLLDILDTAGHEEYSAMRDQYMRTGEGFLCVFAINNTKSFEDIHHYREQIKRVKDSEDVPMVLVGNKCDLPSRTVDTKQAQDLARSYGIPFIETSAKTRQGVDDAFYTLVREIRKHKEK

KRas^G12C = molecular target: T7, KRas^G12C (Homo sapiens, UniProt P01116, G12C); test: KRas binding assay (TR-FRET tracer displacement), KRas G12C; details: TR-FRET tracer displacement, KRas G12C
T7 construct: Biotinylated KRas (corresponding to amino acids 1-169, produced at Accelegan Inc.); biotin (biotinylated); purchased Accelegan Inc
T7 sequence (P01116 1-169 isoform P01116-2 G12C): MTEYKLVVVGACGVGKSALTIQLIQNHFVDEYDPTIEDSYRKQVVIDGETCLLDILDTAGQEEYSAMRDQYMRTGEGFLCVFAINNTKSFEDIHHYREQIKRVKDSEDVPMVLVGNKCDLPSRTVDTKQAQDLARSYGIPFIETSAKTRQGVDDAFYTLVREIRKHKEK

KRas^G13D = molecular target: T8, KRas^G13D (Homo sapiens, UniProt P01116, G13D); test: KRas binding assay (TR-FRET tracer displacement), KRas G13D; details: TR-FRET tracer displacement, KRas G13D
T8 construct: Biotinylated KRas (corresponding to amino acids 1-169, produced at Accelegan Inc.); biotin (biotinylated); purchased Accelegan Inc
T8 sequence (P01116 1-169 isoform P01116-2 G13D): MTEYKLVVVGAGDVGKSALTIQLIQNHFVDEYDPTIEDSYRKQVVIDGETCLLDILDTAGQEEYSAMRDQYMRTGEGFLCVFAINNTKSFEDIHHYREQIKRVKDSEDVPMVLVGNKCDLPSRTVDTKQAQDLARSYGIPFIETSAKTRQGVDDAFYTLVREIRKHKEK

KRas^WT = molecular target: T9, KRas^WT (Homo sapiens, UniProt P01116); test: KRas binding assay (TR-FRET tracer displacement), KRas WT; details: TR-FRET tracer displacement, KRas WT
T9 construct: Biotinylated KRas (corresponding to amino acids 1-169, produced at Accelegan Inc.); biotin (biotinylated); purchased Accelegan Inc
T9 sequence (P01116 1-169 isoform P01116-2): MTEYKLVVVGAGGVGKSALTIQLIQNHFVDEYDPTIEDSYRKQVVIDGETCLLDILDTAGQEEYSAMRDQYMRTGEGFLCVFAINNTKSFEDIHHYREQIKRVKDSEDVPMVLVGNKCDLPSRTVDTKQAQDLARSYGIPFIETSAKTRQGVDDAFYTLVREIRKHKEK

Row | IC50 [1] [nM] | IC50 (KRas^G12D) [nM] | IC50 (KRas^G12S) [nM] | IC50 (KRas^G12R) [nM] | IC50 [2] [nM] | IC50 (KRas^G12A) [nM] | IC50 (KRas^G12V) [nM] | IC50 (KRas^Q61H) [nM] | IC50 (KRas^G12C) [nM] | IC50 (KRas^G13D) [nM] | IC50 (KRas^WT) [nM] | Structure (SMILES)
1 | 3160 | 4 | 9 | 11 | 2630 | 10 | 5 | 6 | 7 | 8 | 9 | CC1(O)COCCN(c2nc(OCC34CCCN3CCC4)nc3c(F)c(-c4cc(O)cc(Cl)c4C4CC4)ncc23)C1 (racemic) [Example 740, rac-(R)-4-(7-(3-chloro-2-cyclopropyl-5-hydroxyphenyl)-8-fluoro-2-((tetrahydro-1H-pyrrolizin-7a(5H)-yl)methoxy)pyrido[4,3-d]pyrimidin-4-yl)-6-methyl-1,4-oxazepan-6-ol]
2 | – | 50700 | > 100000 | 45400 | – | 93800 | 55900 | > 100000 | > 100000 | > 100000 | > 100000 | O=C1NC(=O)C2CC(c3nc(OCC45CCCN4CCC5)nc4c(F)c(-c5cccc6cccc(F)c56)ncc34)=CC12 (centres unmarked) [Example 525, 5-(8-fluoro-7-(8-fluoronaphthalen-1-yl)-2-((tetrahydro-1H-pyrrolizin-7a(5H)-yl)methoxy)pyrido[4,3-d]pyrimidin-4-yl)-4,6a-dihydrocyclopenta[c]pyrrole-1,3(2H,3aH)-dione]
3 | – | 1590 | 170 | 720 | – | 301 | 404 | 612 | 185 | 585 | 419 | O[C@@H]1C[C@H]2C[C@@H]1CN(c1nc(OC[C@@]34CCCN3C[C@H](F)C4)nc3c(F)c(-c4cccc5ccccc45)ncc13)C2 [Example 724, (1R,5R,6R)-3-(8-fluoro-2-(((2R,7aS)-2-fluorohexahydro-1H-pyrrolizin-7a-yl)methoxy)-7-(naphthalen-1-yl)pyrido[4,3-d]pyrimidin-4-yl)-3-azabicyclo[3.2.1]octan-6-ol]
4 | – | 22900 | 1510 | 76200 | – | 634 | 52000 | 2130 | 591 | 470 | 1400 | Cc1cc2sncc2c(-c2ncc3c(N4CCC[C@@](C)(O)C4)nc(OCC45CCCN4CCC5)nc3c2F)c1C [Example 820, (3R)-1-(7-(5,6-dimethylbenzo[d]isothiazol-4-yl)-8-fluoro-2-((tetrahydro-1H-pyrrolizin-7a(5H)-yl)methoxy)pyrido[4,3-d]pyrimidin-4-yl)-3-methylpiperidin-3-ol]
5 | – | 3890 | 121 | 12000 | – | 137 | 5850 | 196 | 146 | 146 | 151 | Cc1cc2[nH]nnc2c(-c2ncc3c(N4CCC[C@@](C)(O)C4)nc(OC[C@@]45CCCN4C[C@H](F)C5)nc3c2F)c1C [Example 821, (3R)-1-(7-(5,6-dimethyl-1H-benzo[d][1,2,3]triazol-4-yl)-8-fluoro-2-(((2R,7aS)-2-fluorotetrahydro-1H-pyrrolizin-7a(5H)-yl)methoxy)pyrido[4,3-d]pyrimidin-4-yl)-3-methylpiperidin-3-ol]
6 | – | 2180 | 4660 | 9670 | – | 4980 | 3430 | 5660 | 4080 | 5410 | 5420 | Cc1cc2[nH]nnc2c(-c2ncc3c(N4CCOC[C@@](C)(O)C4)nc(OCC45CCCN4CCC5)nc3c2F)c1C [Example 822, (6S)-4-(7-(5,6-dimethyl-1H-benzo[d][1,2,3]triazol-4-yl)-8-fluoro-2-((tetrahydro-1H-pyrrolizin-7a(5H)-yl)methoxy)pyrido[4,3-d]pyrimidin-4-yl)-6-methyl-1,4-oxazepan-6-ol]
7 | – | 2220 | 1370 | 1380 | – | 1430 | 922 | 1390 | 1300 | 1270 | 1420 | Cc1cc2[nH]nnc2c(-c2ncc3c(N4CCCC5(C4)NC(=O)NC5=O)nc(OCC45CCCN4CCC5)nc3c2F)c1C (centres unmarked) [Example 823, 7-(7-(5,6-dimethyl-1H-benzo[d][1,2,3]triazol-4-yl)-8-fluoro-2-((tetrahydro-1H-pyrrolizin-7a(5H)-yl)methoxy)pyrido[4,3-d]pyrimidin-4-yl)-1,3,7-triazaspiro[4.5]decane-2,4-dione]
8 | – | 17100 | 2940 | 6410 | – | 3770 | 4550 | 4610 | 3200 | 3880 | 4590 | Cc1cc2[nH]nnc2c(-c2ncc3c(N4C[C@@H]5C[C@H](C4)[C@H](O)C5)nc(OCC45CCCN4CCC5)nc3c2F)c1C [Example 832, (1R,5R,6R)-3-(7-(5,6-dimethyl-1H-benzo[d][1,2,3]triazol-4-yl)-8-fluoro-2-((tetrahydro-1H-pyrrolizin-7a(5H)-yl)methoxy)pyrido[4,3-d]pyrimidin-4-yl)-3-azabicyclo[3.2.1]octan-6-ol]
9 | – | 1080 | 1860 | 9160 | – | 5130 | 3540 | 3670 | 4490 | 2820 | 3830 | Cc1cc2[nH]nnc2c(-c2ncc3c(N4CC5C(=O)NC(=O)C5C4)nc(OCC45CCCN4CCC5)nc3c2F)c1C (centres unmarked) [Example 833, 5-(7-(5,6-dimethyl-1H-benzo[d][1,2,3]triazol-4-yl)-8-fluoro-2-((tetrahydro-1H-pyrrolizin-7a(5H)-yl)methoxy)pyrido[4,3-d]pyrimidin-4-yl)tetrahydropyrrolo[3,4-c]pyrrole-1,3(2H,3aH)-dione]
10 | – | 153 | 1260 | 2910 | – | 2380 | 743 | 3810 | 1630 | 4060 | 3780 | Cc1cc2[nH]nnc2c(-c2ncc3c(N4CCCn5nc(C(=O)N(C)C)cc5C4)nc(OCC45CCCN4CCC5)nc3c2F)c1C [Example 839, 5-(7-(5,6-dimethyl-1H-benzo[d][1,2,3]triazol-4-yl)-8-fluoro-2-((tetrahydro-1H-pyrrolizin-7a(5H)-yl)methoxy)pyrido[4,3-d]pyrimidin-4-yl)-N,N-dimethyl-5,6,7,8-tetrahydro-4H-pyrazolo[1,5-a][1,4]diazepine-2-carboxamide]
11 | – | 1190 | 2510 | 4270 | – | 2230 | 2200 | 2830 | 2060 | 2470 | 2820 | Cc1cc2[nH]nnc2c(-c2ncc3c(N4CCCC5(CNC(=O)N5)C4)nc(OCC45CCCN4CCC5)nc3c2F)c1C (centres unmarked) [Example 856, 7-(7-(5,6-dimethyl-1H-benzo[d][1,2,3]triazol-4-yl)-8-fluoro-2-((tetrahydro-1H-pyrrolizin-7a(5H)-yl)methoxy)pyrido[4,3-d]pyrimidin-4-yl)-1,3,7-triazaspiro[4.5]decan-2-one]
12 | – | 2670 | 4440 | 8950 | – | 3690 | 4410 | 4530 | 3820 | 2720 | 3420 | Cc1cc2[nH]ccc2c(-c2ncc3c(N4CCC[C@@](C)(O)C4)nc(OCC45CCCN4CCC5)nc3c2F)c1C [Example 871, (3R)-1-(7-(5,6-dimethyl-1H-indol-4-yl)-8-fluoro-2-((tetrahydro-1H-pyrrolizin-7a(5H)-yl)methoxy)pyrido[4,3-d]pyrimidin-4-yl)-3-methylpiperidin-3-ol]
13 | – | 40700 | 201 | 62300 | – | 375 | 58300 | 539 | 199 | 567 | 579 | Cc1cc2[nH]cnc2c(-c2ncc3c(N4CCC[C@@](C)(O)C4)nc(OCC45CCCN4CCC5)nc3c2F)c1C [Example 888, (3R)-1-(7-(5,6-dimethyl-1H-benzo[d]imidazol-4-yl)-8-fluoro-2-((tetrahydro-1H-pyrrolizin-7a(5H)-yl)methoxy)pyrido[4,3-d]pyrimidin-4-yl)-3-methylpiperidin-3-ol]
